For four molecules, Ki results are on record in ChEMBL document CHEMBL5726080, “Substituted piperidine compounds and their use as orexin receptor modulators” (2017).

This assay is described as follows: Receptor Radioligand Binding Studies: Human Embryonic Kidney 293 cells (HEK293) stably expressing rat orexin 1 receptor (Genebank accession number NM_001525) or Chinese ovary cells (CHO) stably expressing […] were grown to confluency in DMEM (Hyclone, cat #SH30022), 10% FBS, 1×Pen/Strep, 1× sodium pyruvate, 10 mM HEPES, 600 μg/mL G418 and DMEM/F12 (Gibco, Cat #11039), 10% FBS, 1×Pen/Strep, 600 μg/mL G418 media, respectively on 150 cm2 tissue culture plates, washed with 5 mM EDTA in PBS (HyClone Dulbecco's Phosphate Buffered Saline 1× with Calcium and Magnesium, Cat #SH30264.01, hereafter referred to simply as PBS) and scraped into 50 ml tubes. After centrifugation (2K×G, 5 min at 4° C.), the supernatant was aspirated and the pellets frozen and stored at −80° C. Cells were resuspended in PBS in the presence of 1 tablet of protease inhibitor cocktail (Roche, Cat. #11836145001) per 50 mL. Each cell pellet from a 15 cm plate was resuspended in 10 mL, stored on ice, and homogenized for 45 sec prior to addition to the reactions. Competition binding experiments in 96 well polypropylene plates were performed using [3H]-(1-(5-(2-fluoro-phenyl)-2-methyl-thiazol-4-yl)-1-((S)-2-(5-phenyl-(1,3,4)oxadiazol-2-ylmethyl)-pyrrolidin-1-yl)-methanone) (Moraveck Corporation, specific activity=35.3 Ci/mmol), diluted to a 10 nM concentration in PBS (4 nM final). Compounds were solubilized in 100% DMSO (Acros Organics, Cat. #61042-1000) and tested over a range of 7 concentrations (from 0.1 nM to 10 μM). The final concentration of DMSO in the reactions is equal to or less than 0.1%. Total and nonspecific binding was determined in the absence and presence of 10 μM almorexant. The total volume of each reaction is 200 μL (20 μL of diluted compounds, 80 μL of [3H]-(1-(5-(2-fluoro-phenyl)-2-methyl-thiazol-4-yl)-1-((S)-2-(5-phenyl-(1,3,4)oxadiazol-2-ylmethyl)-pyrrolidin-1-yl)-methanone) diluted in PBS and 100 μL of the cell suspension). Reactions were run for 60 min at room temperature and terminated by filtration through GF/C filter plates (PerkinElmer, Cat. #6005174) presoaked in 0.3% polyethylenimine using the cell harvester (PerkinElmer Filtermate). The plates were washed 3 times by aspirating 30 ml PBS through the plates. Plates were dried in 55° C. oven for 60 min, scintillation fluid was added, and the radioactivity was counted on a Topcount (Packard).

The term Ki denotes the dissociation constant of the complex between target and ligand, obtained from inhibition or displacement. For `Cc1ccc(C(=O)N2CCC[C@@H](Nc3nnc(C(F)(F)F)s3)[C@@H]2C)c(-n2nccn2)n1` (relative stereo), the Ki was over 10 µM.
For `COc1ccc(C(=O)N2CCC[C@@H](Nc3ccc(C(F)(F)F)cn3)[C@@H]2C)c(Cl)n1` (relative stereo) the value was over 10 µM.
For `Cc1ccc(C(=O)N2CCC[C@@H](N(C)c3ccc(C(F)(F)F)cn3)[C@@H]2C)c(-n2nccn2)n1` (relative stereo) the value was over 10 µM; for `COc1ccc(C(=O)N2CCC[C@@H](Nc3ncc(C(F)(F)F)cn3)[C@@H]2C)c(Cl)n1` (relative stereo), over 10 µM.
